Experimental findings from patent US12336982B2 (RODEO THERAPEUTICS CORPORATION, priority 2018, dated 2025) are described below.

As a reminder, the IC50 is the point on the concentration scale where inhibition reaches its midpoint.

The target of the assay is T1, recombinant 15-PGDH (Homo sapiens, UniProt P15428).
T1 sequence (P15428 1-266): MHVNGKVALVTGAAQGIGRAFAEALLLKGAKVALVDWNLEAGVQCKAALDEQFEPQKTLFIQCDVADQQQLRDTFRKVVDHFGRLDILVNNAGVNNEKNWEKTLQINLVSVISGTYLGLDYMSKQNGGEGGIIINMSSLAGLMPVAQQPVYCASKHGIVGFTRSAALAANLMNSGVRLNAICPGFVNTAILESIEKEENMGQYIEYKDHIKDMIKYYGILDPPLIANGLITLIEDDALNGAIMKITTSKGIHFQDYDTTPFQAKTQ
The class given is biochemical. The conditions noted are these: recombinant human 15-PGDH, in vitro; read-out: PDGH Assay-IC50.

Excerpt: The Recombinant 15-PGDH is human unless otherwise specified.

For `COCCC[S+]([O-])c1sc2nc(-c3ccnnc3)cc(-c3ccccc3)c2c1N` (stereo not drawn) [Example 209], the IC50 is less than 2.5 nM.

Consider `COCC[S+]([O-])c1sc2nc(-c3ccnnc3)cc(-c3ccccc3)c2c1N` (stereo not drawn) [Example 210], for which the 50% inhibitory concentration (IC50) was less than 2.5 nM. `COCC[S@@+]([O-])c1sc2nc(-c3ccnnc3)cc(-c3ccccc3)c2c1N` [Example 211]: the half-maximal inhibitory concentration (IC50) was less than 2.5 nM. In the case of `COCC[S@+]([O-])c1sc2nc(-c3ccnnc3)cc(-c3ccccc3)c2c1N` [Example 212] it was no less than 10 nM. Take `Cn1ccc(-c2cc(-c3ccnnc3)nc3sc([S+]([O-])C4CCC4)c(N)c23)n1` (stereo not drawn) [Example 213]: the IC50 is less than 2.5 nM. Regarding `COCC[S+]([O-])c1sc2nc(-c3ccc4[nH]nnc4c3)cc(-c3ccnn3C)c2c1N` (stereo not drawn) [Example 214], the IC50 is less than 2.5 nM. In the case of `Nc1c([S@+]([O-])C2CCC2)sc2nc(-c3cncnc3)cc(-c3ccnn3C3CC3)c12` [Example 215] it was less than 2.5 nM; in that of `Cn1nccc1-c1cc(-c2cnc3c(=O)n(C)ccc3c2)nc2sc([S+]([O-])C3CCC3)c(N)c12` (stereo not drawn) [Example 216], less than 2.5 nM; in that of `Cc1nn(C)cc1-c1cc(-c2cnc(N)nc2)nc2sc([S+]([O-])C3CCC3)c(N)c12` (stereo not drawn) [Example 218], less than 2.5 nM.

With `Nc1c([S@+]([O-])C2CCC2)sc2nc(-c3cc(=O)[nH]cn3)cc(-c3ccccc3)c12` [Example 219], the IC50 is less than 2.5 nM. As for `COCC[S@@+]([O-])c1sc2nc(-c3cc(=O)n(C)cn3)cc(-c3ccccc3)c2c1N` [Example 220], the IC50 is less than 2.5 nM. As to `Nc1c([S+]([O-])C2CCC2)sc2nc(-c3cnc(CO)nc3)cc(-c3ccccc3)c12` (stereo not drawn) [Example 221], the IC50 is less than 2.5 nM.

`Nc1c([S+]([O-])C2CCC2)sc2nc(-c3cnc(NCCO)nc3)cc(C3COC3)c12` (stereo not drawn) [Example 222]: the IC50 was less than 2.5 nM. `Cn1nccc1-c1cc(-c2cnc(O)nc2)nc2sc([S+]([O-])C3CCC3)c(N)c12` (stereo not drawn) [Example 223]: the IC50 was less than 2.5 nM.

For the molecule `Cn1nccc1-c1cc(-c2cnc(O)nc2)nc2sc([S@+]([O-])C3CCC3)c(N)c12` [Example 224], the IC50 was less than 2.5 nM. For the molecule `Cn1nccc1-c1cc(-c2cnc(O)nc2)nc2sc([S@@+]([O-])C3CCC3)c(N)c12` [Example 225], the 50% inhibitory concentration (IC50) was no less than 10 nM. `COCC[S+]([O-])c1sc2nc(-c3cnc4c(cnn4C)c3)cc(C3CC3)c2c1N` (stereo not drawn) [Example 226]: the IC50 is less than 2.5 nM. For the molecule `COCC[S+]([O-])c1sc2nc(-c3cncnc3)cc(-c3ncccn3)c2c1N` (stereo not drawn) [Example 229], the half-inhibitory concentration (IC50) is less than 2.5 nM. In the case of `COCC[S@@+]([O-])c1sc2nc(-c3cncnc3)cc(-c3ncccn3)c2c1N` [Example 230], the IC50 is less than 2.5 nM. `COCC[S@+]([O-])c1sc2nc(-c3cncnc3)cc(-c3ncccn3)c2c1N` [Example 231]: the IC50 was no less than 10 nM. With `COCCNc1ncc(-c2cc(-c3ncccn3)c3c(N)c([S+]([O-])C4CCC4)sc3n2)cn1` (stereo not drawn) [Example 232], the IC50 is less than 2.5 nM.

In the case of `COCCC[S+]([O-])c1sc2nc(-c3cncnc3)cc(-c3cnccn3)c2c1N` (stereo not drawn) [Example 233], the IC50 is less than 2.5 nM. On to `COCCC[S@@+]([O-])c1sc2nc(-c3cncnc3)cc(-c3cnccn3)c2c1N` [Example 234], for which the IC50 was no less than 10 nM. `COCCC[S@+]([O-])c1sc2nc(-c3cncnc3)cc(-c3cnccn3)c2c1N` [Example 235]: the IC50 is less than 2.5 nM. On to `COCCC[S+]([O-])c1sc2nc(-c3cncnc3)cc(-c3cccnn3)c2c1N` (stereo not drawn) [Example 236], for which the IC50 was less than 2.5 nM. In the case of `COCCC[S+]([O-])c1sc2nc(-c3cncnc3)cc(-c3ccncn3)c2c1N` (stereo not drawn) [Example 237], the IC50 is less than 2.5 nM. With `COCCC[S@@+]([O-])c1sc2nc(-c3cncnc3)cc(-c3ccncn3)c2c1N` [Example 238], the half-maximal inhibitory concentration (IC50) is less than 2.5 nM.

On to `COCCC[S@+]([O-])c1sc2nc(-c3cncnc3)cc(-c3ccncn3)c2c1N` [Example 239], for which the IC50 was no less than 10 nM. In the case of `COCCC[S+]([O-])c1sc2nc(-c3cncnc3)cc(-c3ccnnc3)c2c1N` (stereo not drawn) [Example 240] it was 2.5 to 10 nM; in that of `COCC[S+]([O-])c1sc2nc(-c3cnc4c(c3)CNC4=O)cc(-c3ccccc3)c2c1N` (stereo not drawn) [Example 241], less than 2.5 nM. As for `COCC[S@@+]([O-])c1sc2nc(-c3cnc4c(c3)CNC4=O)cc(-c3ccccc3)c2c1N` [Example 242], the half-inhibitory concentration (IC50) is less than 2.5 nM. For `COCC[S@+]([O-])c1sc2nc(-c3cnc4c(c3)CNC4=O)cc(-c3ccccc3)c2c1N` [Example 243], the half-inhibitory concentration (IC50) is no less than 10 nM. For the molecule `COCC[S+]([O-])c1sc2nc(-c3cnc4c(c3)nnn4C)cc(C3CC3)c2c1N` (stereo not drawn) [Example 244], the IC50 is less than 2.5 nM. In the case of `Nc1c([S+]([O-])C2CCC2)sc2nc(-c3cnc(N4CC(O)C4)nc3)cc(-c3ccccc3)c12` (stereo not drawn) [Example 248], the IC50 was less than 2.5 nM. In the case of `Nc1c([S+]([O-])C2CCC2)sc2nc(-c3cnc(N4CC(O)C4)nc3)cc(C3CC3)c12` (stereo not drawn) [Example 250], the IC50 was less than 2.5 nM. In the case of `COCC[S+]([O-])c1sc2nc(-c3cncnc3)cc(C3CCC3)c2c1N` (stereo not drawn) [Example 251] it was less than 2.5 nM; in that of `COCC[S@@+]([O-])c1sc2nc(-c3cncnc3)cc(C3CCC3)c2c1N` [Example 252], less than 2.5 nM; in that of `COCC[S@+]([O-])c1sc2nc(-c3cncnc3)cc(C3CCC3)c2c1N` [Example 253], no less than 10 nM. As for `COCCC[S+]([O-])c1sc2nc(-c3cncnc3)cc(C3CCC3)c2c1N` (stereo not drawn) [Example 254], the half-inhibitory concentration (IC50) was less than 2.5 nM. The same measure for `Nc1c([S+]([O-])C2CCC2)sc2nc(-c3cncnc3)cc(C3CCC3)c12` (stereo not drawn) [Example 255]: less than 2.5 nM; for `COCC[S+]([O-])c1sc2nc(-c3cncnc3)cc(C34CC(C3)C4)c2c1N` (stereo not drawn) [Example 256]: less than 2.5 nM; for `Nc1c([S+]([O-])C2CCC2)sc2nc(-c3cncnc3)cc(C34CC(C3)C4)c12` (stereo not drawn) [Example 257]: less than 2.5 nM.

In the case of `COCCC[S+]([O-])c1sc2nc(-c3cnc4nn(C)cc4c3)cc(C3CCC3)c2c1N` (stereo not drawn) [Example 260], the IC50 is less than 2.5 nM. In the case of `COCCC[S@@+]([O-])c1sc2nc(-c3cnc4nn(C)cc4c3)cc(C3CCC3)c2c1N` [Example 261] it was less than 2.5 nM; in that of `COCCC[S@+]([O-])c1sc2nc(-c3cnc4nn(C)cc4c3)cc(C3CCC3)c2c1N` [Example 262], no less than 10 nM.

In the case of `COCC[S+]([O-])c1sc2nc(-c3cnc4nn(CCO)cc4c3)cc(-c3ccccc3)c2c1N` (stereo not drawn) [Example 263], the IC50 was less than 2.5 nM. Turning to `COCC[S+]([O-])c1sc2nc(-c3cnc4nn(CCO)cc4c3)cc(C3CCC3)c2c1N` (stereo not drawn) [Example 266], the IC50 was less than 2.5 nM. In the case of `COCCC[S+]([O-])c1sc2nc(-c3cnc4nn(CCO)cc4c3)cc(-c3ccccc3)c2c1N` (stereo not drawn) [Example 269], the IC50 was less than 2.5 nM.

Regarding `COCCC[S+]([O-])c1sc2nc(-c3cnc4nn(CCO)cc4c3)cc(C3CCC3)c2c1N` (stereo not drawn) [Example 270], the IC50 is less than 2.5 nM. The same measure for `COCC[S+]([O-])c1sc2nc(-c3cnn(CCO)c3)cc(-c3ccccc3)c2c1N` (stereo not drawn) [Example 271]: less than 2.5 nM; for `Nc1c([S+]([O-])C2CCC2)sc2nc(-c3cnn(CCO)c3)cc(-c3ccccc3)c12` (stereo not drawn) [Example 272]: less than 2.5 nM; for `COCCC[S+]([O-])c1sc2nc(-c3cnn(CCO)c3)cc(-c3ccccc3)c2c1N` (stereo not drawn) [Example 273]: less than 2.5 nM. In the case of `COCCC[S+]([O-])c1sc2nc(-c3cnn(CCO)c3)cc(-c3ccccc3)c2c1N` (stereo not drawn) [Example 274] it was less than 2.5 nM; in that of `COCC[S@@+]([O-])c1sc2nc(-c3cnn(C)c3)cc(C3CC3)c2c1N` [Example 275], less than 2.5 nM; in that of `COCC[S@+]([O-])c1sc2nc(-c3cnn(C)c3)cc(C3CC3)c2c1N` [Example 276], no less than 10 nM. In the case of `Cn1cc(-c2cc(C3CC3)c3c(N)c([S+]([O-])C4CCC4)sc3n2)cn1` (stereo not drawn) [Example 277], the IC50 was less than 2.5 nM.

As to `COCCC[S+]([O-])c1sc2nc(-c3cnn(C)c3)cc(C3CC3)c2c1N` (stereo not drawn) [Example 278], the 50% inhibitory concentration (IC50) was less than 2.5 nM. Consider `Cn1cc(-c2cc(-c3cnc4nn(C)cc4c3)nc3sc([S+]([O-])C4CCC4)c(N)c23)cn1` (stereo not drawn) [Example 279], for which the IC50 lay in the range of 2.5 to 10 nM. In the case of `Cn1ccc(-c2cc(-c3cncnc3)nc3sc([S+]([O-])C4CCC4)c(N)c23)n1` (stereo not drawn) [Example 280], the concentration for half-maximal inhibition (IC50) is less than 2.5 nM. For `Cc1ncc(-c2cc(-c3cnn(C)c3)c3c(N)c([S+]([O-])C4CCC4)sc3n2)cn1` (stereo not drawn) [Example 281], the IC50 is less than 2.5 nM. The same measure for `Cn1cc(-c2cc(-c3cncnc3)nc3sc([S+]([O-])C4CCC4)c(N)c23)cn1` (stereo not drawn) [Example 282]: less than 2.5 nM; for `Cn1cc2cc(-c3cc(-c4ccc(OCCO)cc4)c4c(N)c([S+]([O-])C5CCC5)sc4n3)cnc2n1` (stereo not drawn) [Example 283]: less than 2.5 nM; for `Cn1cc2cc(-c3cc(C4CC4)c4c(N)c([S+]([O-])C5CCC5)sc4n3)cnc2n1` (stereo not drawn) [Example 286]: less than 2.5 nM.

For `Nc1c([S+]([O-])C2CCC2)sc2nc(-c3cncnc3)cc(-c3cnccn3)c12` (stereo not drawn) [Example 289], the half-inhibitory concentration (IC50) was less than 2.5 nM. On to `COCCC[S+]([O-])c1sc2nc(-c3cnc(N4CC(O)C4)nc3)cc(-c3ccccc3)c2c1N` (stereo not drawn) [Example 290], for which the IC50 is 2.5 to 10 nM.

In the case of `COCC[S+]([O-])c1sc2nc(-c3cnc(N4CC(O)C4)nc3)cc(-c3ccccc3)c2c1N` (stereo not drawn) [Example 300], the half-inhibitory concentration (IC50) was in the range of 2.5 to 10 nM. Take `COCCC[S+]([O-])c1sc2nc(-c3cnc4c(cnn4CCO)c3)cc(-c3ccccc3)c2c1N` (stereo not drawn) [Example 301]: the concentration for half-maximal inhibition (IC50) was in the range of 2.5 to 10 nM.

Consider `COCCC[S+]([O-])c1sc2nc(-c3cnc4c(cnn4CCO)c3)cc(C3CC3)c2c1N` (stereo not drawn) [Example 302], for which the half-inhibitory concentration (IC50) lay within 2.5 to 10 nM.

On to `COCCC[S+]([O-])c1sc2nc(-c3cnc4c(c3)CNC4=O)cc(-c3ccccc3)c2c1N` (stereo not drawn) [Example 303], for which the IC50 is less than 2.5 nM.
